Data on two compounds can be found in publication PMC8868508, “Kassporin-KS1: A Novel Pentadecapeptide from the Skin Secretion of Kassina senegalensis: Studies on the Structure-Activity Relationships of Site-Specific “Glycine-Lysine” Motif Insertions” (Antibiotics, 2022).

The subject of one data set is K. pneumoniae ATCC 43816. It is filed as cell-based, Klebsiella pneumoniae. The procedure:
(§1) The inhibition of representative microorganisms by peptides was evaluated by the modified broth dilution technique. The microorganisms included Candida albicans (C. albicans, NCTC 10231), Enterococcus faecalis (E. faecalis, NCTC 12697), Staphylococcus aureus (S. aureus, NCTC 10788), Klebsiella pneumoniae (K. pneumoniae, ATCC 43816), Methicillin-resistant Staphylococcus aureus (MRSA, ATCC 12493), Pseudomonas aeruginosa (P. aeruginosa, ATCC 27853), and Escherichia coli (E. coli, NCTC 10418).
(§2) Firstly, the selected microorganism was incubated in conical flasks with 100 mL Mueller Hinton broth (MHB) overnight. Then, the bacterial solution was sub-cultured in 20 mL MHB until it reached the logarithmic growth phase. Meanwhile, the peptide solution was prepared. The peptide was dissolved into 128 × 10^2 μM solution with phosphate-buffered saline (PBS) and then double-diluted into 64, 32, 16, 8, 4, 2, and 1 × 10^2 μM. Each sample solution and positive control ([…] Norfloxacin) was added to 96-well plates and divided into five replicates, 1 μL per well. The blank control was 100 µL MHB, and the growth control was 100 µL bacterial solutions. When the optical density (OD) value corresponding to the microbial concentration reached the value (Gram-positive bacteria: 0.23; Gram-negative bacteria: 0.4; fungi: 0.15) in their logarithmic growth phase, the microorganisms were diluted to the required concentration with MHB (Gram-negative and Gram-positive bacteria: 5 × 10^5 CFU/mL; fungi: 1 × 10^6 CFU/mL).
(§3) The diluted bacterial solution was then added to the 96-well plate at 99 µL per well. The plate was incubated at 37 °C and observed the next day. The MIC was the corresponding lowest peptide concentration without microbial growth. The absorbance of the 96-well plate at 550 nm was measured by Synergy HT Microplate Spectrophotometer (Biotech, Minneapolis, MN, USA), and the obtained values were quantitatively analyzed by Prism 7 software. Subsequently, the concentrations corresponding to the clear solution were removed from the 96-well plate in 10 µL and dropped onto the solidified MHA. The Petri dishes with MHA were cultured overnight, observed and the minimum peptide concentration without colonies was MBC.

The test system of data set [1] is S. aureus NCTC 10788. It is filed as cell-based, Staphylococcus aureus. How it is done:
As mentioned in the previous study, the salt and pH sensitivities of AMPs exposed to physiological concentrations of salts or non-neutral environments were tested. MHB containing different ion concentrations (150 mM NaCl, 1 mM MgCl2, and 4 μM FeCl3) and MHB with pH 6.0 and pH 8.0 were prepared. The selected microorganism Staphylococcus aureus (S. aureus, NCTC 10788) was incubated overnight in the prepared medium, sub-cultured to the logarithmic phase, and then diluted to 5 × 10^5 CFU/mL. The subsequent steps were carried out as the MIC/MBC assay.

Data set [2] concerns S. aureus NCTC 10788 biofilm. Format: cell-based, Staphylococcus aureus. To be noted: NCTC 10788, 24 h. How it is done: (§4) As previously described, the MBIC and MBEC of the peptides against bacteria were determined. Staphylococcus aureus (S. aureus, NCTC 10788) and Escherichia coli (E. coli, NCTC 10418) was selected as representative strains. For the MBIC assay, the cultures were sub-cultured to their logarithmic growth phases. The diluted bacterial suspension was incubated with the peptide solution overnight in a 96-well plate. The resulting biofilm was washed with PBS solution, fixed with methanol, and dried. The biofilm was then stained with 0.1% (w/v) crystal violet, washed again with PBS, and dissolved in 30% acetic acid. The absorbance of the solution in each well at 595 nm was counted by the Synergy HT Microplate Spectrophotometer (Biotech, Minneapolis, MN, USA). Compared with the negative control, the lowest concentration that inhibits biofilm formation was MBIC. For the determination of MBEC, the diluted bacterial solution was incubated in the 96-well plate for 24 h, with 100 µL per well. Then, the biofilm was washed and re-incubated with 100 µL peptide-medium solution. After 24 h, the biofilm was again washed, stained, and dissolved as in the MBIC assay. Each well was detected at 595 nm by the same plate reader in MBIC. Compared with the negative control, the lowest concentration to eliminate biofilm was MBEC.

For data set [3], the system named is S. aureus NCTC 10788. Format: cell-based, Staphylococcus aureus. How it is done:
as §1, §2, §3
This is another data set of the same source.

A further data set has as its system MRSA NCTC 12493. It is filed as cell-based, Methicillin-resistant Staphylococcus aureus.
Another data set has as its system C. albicans NCTC 10231. Format: cell-based, Candida albicans. How it is done:
as §1, §2, §3

Another data set relates to P. aeruginosa ATCC 27853. It is filed as cell-based, Pseudomonas aeruginosa. How it is done:
as §1, §2, §3

The test system of data set [4] is S. aureus infected Galleria mellonella larvae. To be noted: in vivo. The procedure:
Galleria mellonella larvae of equal weight were injected with bacterial suspensions to observe the peptides’ efficacy. First, the wax worm larvae were weighed (Livefood UK Ltd., Rooks Bridge, UK). The appropriate weight for the assay was 250 ± 25 mg. Then, S. aureus NCTC 10788 was cultured in sterilized saline until the bacterial suspension density reached 10^8 CFU/mL. […] Then, 10 µL peptide solutions were injected into the larvae at 6, 12, and 24 mg/kg. The positive control was the dosage of 20 mg/kg Vancomycin. The negative control was the administration of saline. In total, nine wax worms were included in each group. After being injected, the number of larvae deaths was recorded every 12 h until it reached 120 h.

Another data set relates to E. coli NCTC 10418. Format: cell-based, Escherichia coli. The procedure: as §1, §2, §3
For the next data set, the system named is E. faecalis NCTC 12697. It is filed as cell-based, Enterococcus faecalis. The procedure: as §1, §2, §3
In data set [5] the test system is E. coli NCTC 10418 biofilm. Format: cell-based, Escherichia coli. To be noted: NCTC 10418, 24 h. How it is done: as §4

Converted amounts (≈) assume the structure as drawn. Where two headings read alike, the source gives them in different places. Where a SMILES comes first, the peptide text is derived from it.

On to `CC[C@H](C)[C@H](NC(=O)[C@H](C)NC(=O)[C@H](CCC(=O)O)NC(=O)[C@H](CCC(N)=O)NC(=O)[C@@H](NC(=O)[C@H](CC(C)C)NC(=O)[C@H](C)NC(=O)[C@H](CC(C)C)NC(=O)[C@H](C)NC(=O)[C@H](CC(C)C)NC(=O)[C@@H](N)Cc1ccccc1)[C@@H](C)CC)C(=O)N[C@@H](C)C(=O)N[C@@H](CCCCN)C(=O)N[C@@H](CC(C)C)C(=O)N[C@@H](CCCCN)C(N)=O` [QUB-1641] (H-FLALALIQEAIAKLK-NH2), for which the MBC was over 128 µM with K. pneumoniae ATCC 43816; over 128 µM in the data set on S. aureus NCTC 10788 [1]; 64 µM in the data set with S. aureus NCTC 10788 [3]; 128 µM (≈ 210 µg/mL) in the data set with MRSA NCTC 12493; over 128 µM in the data set with C. albicans NCTC 10231; over 128 µM in the data set with P. aeruginosa ATCC 27853. Besides, the MBC in the data set with E. coli NCTC 10418 is over 128 µM; in the data set on E. faecalis NCTC 12697 it was 128 µM. The MIC in the data set on K. pneumoniae ATCC 43816 is over 128 µM; with S. aureus NCTC 10788 [3], 64 µM; against MRSA NCTC 12493, 64 µM (≈ 105 µg/mL); with C. albicans NCTC 10231, over 128 µM; in the data set with P. aeruginosa ATCC 27853, over 128 µM; in the data set with E. coli NCTC 10418 it was over 128 µM. Moreover, the MIC in the data set with E. faecalis NCTC 12697 was found to be 64 µM. The figures for the MBEC in [2] and in data set [5] were 128/>128 µM and >128/>128 µM, respectively. Further, the figures for the MBIC in [2] and in [5] were 128/>128 µM and >128/>128 µM, respectively. Moreover, the “effect of injection on larvae” value in data set [4] was “causing the larvae to die directly after injection”.
In the case of `CC[C@H](C)[C@H](NC(=O)[C@H](C)NC(=O)[C@H](CCC(=O)O)NC(=O)[C@H](CCCCN)NC(=O)CNC(=O)[C@H](CC(C)C)NC(=O)[C@H](C)NC(=O)[C@H](CC(C)C)NC(=O)[C@H](C)NC(=O)[C@H](CC(C)C)NC(=O)[C@@H](N)Cc1ccccc1)C(=O)N[C@@H](C)C(=O)N[C@@H](CCCCN)C(=O)N[C@@H](CC(C)C)C(=O)N[C@@H](CCCCN)C(N)=O` [QUB-1585] (H-FLALALGKEAIAKLK-NH2), the MBC was over 128 µM with K. pneumoniae ATCC 43816; over 128 µM against S. aureus NCTC 10788 [1]; 64 µM in the data set with S. aureus NCTC 10788 [3]; 128 µM (≈ 203 µg/mL) in the data set with MRSA NCTC 12493; 128 µM with C. albicans NCTC 10231; over 128 µM in the data set on P. aeruginosa ATCC 27853. Moreover, the MBC was 128 µM in the data set on E. coli NCTC 10418 and over 128 µM in the data set on E. faecalis NCTC 12697. In addition, the MIC is over 128 µM in the data set with K. pneumoniae ATCC 43816; 32 µM in the data set on S. aureus NCTC 10788 [3]; 64 µM (≈ 101 µg/mL) with MRSA NCTC 12493; 64 µM in the data set with C. albicans NCTC 10231; over 128 µM in the data set with P. aeruginosa ATCC 27853; 64 µM in the data set on E. coli NCTC 10418. The MIC in the data set with E. faecalis NCTC 12697 worked out at 128 µM. The MBEC is 128 µM in data set [2] and 128/128 µM in [5]. In addition, the MBIC in data set [2] is given as 64 µM; in data set [5], 128/128 µM.
